Measured values published in US11331271B2, “Buccal, sublingual and intranasal delivery of fospropofol” (The Johns Hopkins University, priority 2016, dated 2022).

System: healthy male volunteers
Test: Human Study 1: treatment-emergent adverse events (TEAE), safety, Modified OAA/S
Type: in vivo
Description: In human study 1, fospropofol disodium was formulated as a sterile aqueous solution at a concentration of 20 mg/mL. Each vial provided contained 20 mL of solution, suitable for intravenous injection. Fospropofol was administered as a single dose of 400 mg orally, directly into the duodenum by gastroscopy or intravenously over 10 min. In human study 2, fospropofol disodium in capsules (200 mg) or matching placebo was administered orally.
The first study was an absolute bioavailability study of fospropofol conducted at a single center (PRA Health Sciences) in Groningen, Netherlands, as a three-way crossover study. The study enrolled 7 healthy male volunteers between 18 and 45 years of age inclusive, with a body mass index between 18 and 28 kg/m^2. Subjects stayed in the clinical unit for three consecutive periods of 3 days each, with a 3-day washout, between periods. For six subjects, the order of the administration routes was as follows—period 1: PO, period 2: ID, and period 3: IV. For one subject the order of the administration routes was the following—period 1: ID, period 2: IV and period 3: PO. In this study a single dose of 400 mg was administered by each route. Blinding and placebo control was impractical due to the requirement of unsedated endoscopic administration of fospropofol into the duodenum. Safety and overall pharmacodynamic effect was evaluated based on adverse events, vital signs, electrocardiogram (ECG), Modified Observer's Assessment of Alertness/Sedation (OAA/S) score, clinical laboratory tests, and physical examination.

## CC(C)c1cccc(C(C)C)c1OCOP(=O)(O)O [fospropofol]
400 mg ID
  TEAE GASTROINTESTINAL DISORDERS, events (E): 1
  TEAE GASTROINTESTINAL DISORDERS, subjects (%): 14%
  TEAE GENERAL DISORDERS AND ADMINISTRATION SITE CONDITIONS, events (E): 3
  TEAE GENERAL DISORDERS AND ADMINISTRATION SITE CONDITIONS, subjects (%): 43%
  TEAE INFECTIONS AND INFESTATIONS, events (E): 1
  TEAE INFECTIONS AND INFESTATIONS, subjects (%): 14%
  TEAE NERVOUS SYSTEM DISORDERS, events (E): 3
  TEAE NERVOUS SYSTEM DISORDERS, subjects (%): 43%
  TEAE SKIN AND SUBCUTANEOUS TISSUE DISORDERS, events (E): 1
  TEAE SKIN AND SUBCUTANEOUS TISSUE DISORDERS, subjects (%): 14%
  TEAE TOTAL, events (E): 9
  TEAE TOTAL, subjects (%): 86%
  TEAE dizziness, events (E): 1
  TEAE dizziness, subjects (%): 14%
  TEAE fatigue, events (E): 2
  TEAE fatigue, subjects (%): 29%
  TEAE flatulence, events (E): 1
  TEAE flatulence, subjects (%): 14%
  TEAE herpes simplex, events (E): 1
  TEAE herpes simplex, subjects (%): 14%
  TEAE rash, events (E): 1
  TEAE rash, subjects (%): 14%
  TEAE somnolence, events (E): 2
  TEAE somnolence, subjects (%): 29%
  TEAE subrapubic pain, events (E): 1
  TEAE subrapubic pain, subjects (%): 14%
  subjects with Modified OAA/S score of 4: 43%
  subjects with Modified OAA/S score of 4 (n of 7): Three
400 mg IV
  TEAE BLOOD AND LYMPHATIC SYSTEM DISORDERS, events (E): 1
  TEAE BLOOD AND LYMPHATIC SYSTEM DISORDERS, subjects (%): 14%
  TEAE EYE DISORDERS, events (E): 5
  TEAE EYE DISORDERS, subjects (%): 71%
  TEAE GASTROINTESTINAL DISORDERS, events (E): 4
  TEAE GASTROINTESTINAL DISORDERS, subjects (%): 43%
  TEAE GENERAL DISORDERS AND ADMINISTRATION SITE CONDITIONS, events (E): 9
  TEAE GENERAL DISORDERS AND ADMINISTRATION SITE CONDITIONS, subjects (%): 57%
  TEAE MUSCULOSKELETAL AND CONNECTIVE TISSUE DISORDERS, events (E): 2
  TEAE MUSCULOSKELETAL AND CONNECTIVE TISSUE DISORDERS, subjects (%): 29%
  TEAE NERVOUS SYSTEM DISORDERS, events (E): 31
  TEAE NERVOUS SYSTEM DISORDERS, subjects (%): 100%
  TEAE PSYCHIATRIC DISORDERS, events (E): 2
  TEAE PSYCHIATRIC DISORDERS, subjects (%): 29%
  TEAE REPRODUCTVE SYSTEM AND BREAST DISORDERS, events (E): 1
  TEAE REPRODUCTVE SYSTEM AND BREAST DISORDERS, subjects (%): 14%
  TEAE SKIN AND SUBCUTANEOUS TISSUE DISORDERS, events (E): 1
  TEAE SKIN AND SUBCUTANEOUS TISSUE DISORDERS, subjects (%): 14%
  TEAE TOTAL, events (E): 56
  TEAE TOTAL, subjects (%): 100%
  TEAE burning sensation, events (E): 6
  TEAE burning sensation, subjects (%): 43%
  TEAE catheter site pain, events (E): 1
  TEAE catheter site pain, subjects (%): 14%
  TEAE diplopia, events (E): 1
  TEAE diplopia, subjects (%): 14%
  TEAE disorientation, events (E): 1
  TEAE disorientation, subjects (%): 14%
  TEAE dizziness postural, events (E): 1
  TEAE dizziness postural, subjects (%): 14%
  TEAE dizziness, events (E): 3
  TEAE dizziness, subjects (%): 43%
  TEAE dry mouth, events (E): 1
  TEAE dry mouth, subjects (%): 14%
  TEAE dyspepsia, events (E): 1
  TEAE dyspepsia, subjects (%): 14%
  TEAE ecchymosis, events (E): 1
  TEAE ecchymosis, subjects (%): 14%
  TEAE euphoric mood, events (E): 1
  TEAE euphoric mood, subjects (%): 14%
  TEAE fatigue, events (E): 2
  TEAE fatigue, subjects (%): 29%
  TEAE feeling abnormal, events (E): 1
  TEAE feeling abnormal, subjects (%): 14%
  TEAE feeling cold, events (E): 1
  TEAE feeling cold, subjects (%): 14%
  TEAE feeling drunk, events (E): 1
  TEAE feeling drunk, subjects (%): 14%
  TEAE genital pruritis male, events (E): 1
  TEAE genital pruritis male, subjects (%): 14%
  TEAE lymph node pain, events (E): 1
  TEAE lymph node pain, subjects (%): 14%
  TEAE muscle fatigue, events (E): 2
  TEAE muscle fatigue, subjects (%): 29%
  TEAE nausea, events (E): 1
  TEAE nausea, subjects (%): 14%
  TEAE paresthesia, events (E): 9
  TEAE paresthesia, subjects (%): 86%
  TEAE proctalgia, events (E): 1
  TEAE proctalgia, subjects (%): 14%
  TEAE sluggishness, events (E): 3
  TEAE sluggishness, subjects (%): 43%
  TEAE somnolence, events (E): 5
  TEAE somnolence, subjects (%): 71%
  TEAE speech disorder, events (E): 6
  TEAE speech disorder, subjects (%): 86%
  TEAE tremor, events (E): 1
  TEAE tremor, subjects (%): 14%
  TEAE visual disturbance, events (E): 4
  TEAE visual disturbance, subjects (%): 54%
  subjects with Modified OAA/S score of 4: 57%
  subjects with Modified OAA/S score of 4 (n of 7): 4
400 mg IV, one subject
  time to resolution of euphoria: 34 min
400 mg PO
  TEAE GASTROINTESTINAL DISORDERS, events (E): 1
  TEAE GASTROINTESTINAL DISORDERS, subjects (%): 14%
